Reference: ChEMBL document CHEMBL1126466, “Chemical synthesis of D-erythro-sphingosine-1-phosphate, and its inhibitory effect on cell motility” (1992)
Several values for one entry are separate records, joined by “and”; a condition that tells them apart may be missing. Identical values can stand only once.

How the values were obtained:
Type in all cases: functional, B16/F1
[1] = The compound was tested for inhibitory effect on motility of mouse melanoma B16/Fl cells in an in vitro Matri gel-coated transwell assay system at 0.001 uM concentration
[2] = The compound was tested for inhibitory effect on motility of mouse melanoma B16/Fl cells in an in vitro Matri gel-coated transwell assay system at 0.01 uM concentration expressed as percent migration
[3] = The compound was tested for inhibitory effect on motility of mouse melanoma B16/Fl cells in an in vitro Matri gel-coated transwell assay system at 0.1 uM concentration expressed as percent migration
[4] = The compound was tested for inhibitory effect on motility of mouse melanoma B16/Fl cells in an in vitro Matri gel-coated transwell assay system at 1 uM concentration
[5] = The compound was tested for inhibitory effect on motility of mouse melanoma B16/Fl cells in an in vitro Matri gel-coated transwell assay system at 1 uM concentration expressed as percent migration
[6] = The compound was tested for inhibitory effect on motility of mouse melanoma B16/Fl cells in an in vitro Matri gel-coated transwell assay system at 5 uM concentration expressed as percent migration
[7] = The compound was tested for inhibitory effect on motility of mouse melanoma B16/Fl cells in an in vitro Matri gel-coated transwell assay system at 0.001 uM concentration expressed as percent migration

| SMILES | Migration [1] [%] | Migration [2] | Migration [3] | Migration [4] [%] | Migration [5] [%] | Migration [6] | Migration [7] [%] |
| --- | --- | --- | --- | --- | --- | --- | --- |
| CCCCCCCCCCCCC/C=C/[C@@H](O)[C@@H](N)COP(=O)(O)O | 82 | 12% and 17% | 6% and 12% | 10 | 8 | 34% and 41% | 122 |
| CCCCCCCCCCCCC/C=C/[C@@H](O)[C@@H](N)CO [SPHINGOSINE] |  |  | 90% |  | 78 | 12% |  |
